In patent US20250129021A1, “SMALL MOLECULE PROTEIN SYNTHESIS MODULATORS” (Interdict Bio, Inc., priority 2023, published 2025):

Key:
Format in all cases: biochemical
CCND1 = experiment: In vitro transcription-translation (IVTT) assay, CCND1 reporter; settings: HeLa S3 lysate, sfGFP/mCherry ratio
Method in brief: (§1)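 Reporter: mCherry, P2A, then 3×FLAG-target peptide-sfGFP fusion, IRES-initiated; HeLa S3 lysate IVTT; cpd dilutions 30 μM−0.1 μM half-log in 100% DMSO (dilution-plate conc); DNA added last; 2 h, 30° C; PBS quench.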

BCL-2 = experiment: In vitro transcription-translation (IVTT) assay, BCL-2 reporter; settings: HeLa S3 lysate, sfGFP/mCherry ratio, 2 hrs at 30° C.
Excerpt: All reporter constructs have been cloned into the pT7CFE1-CHis plasmid (ThermoFisher #88860) using Gibson assembly procedures (NEB #E2611L). The parental pT7CFE1-CHis plasmid contains an EMCV IRES at the 5′UTR for translation initiation, a multiple-cloning site (MCS) for gene insertion, an optional C-terminal His-epitope tag, and polyA sequence in the 3′UTR to regulate mRNA stability. All reporters are designed to be inserted at the MCS to include a red fluorescent protein (mCherry), P2A self-cleaving peptide which releases the preceding mCherry protein product, and a fusion open reading frame containing a 3×FLAG epitope, a peptide sequence of interest (TEST), and green fluorescent protein (sfGFP).
Construct Plasmid Preparation: All plasmids are isolated from MACH1 cells (ThermoFisher) grown overnight in ampicillin-containing luria broth, and purified using ZymoPure Express Plasmid Midiprep Kit (Zymo Research). Constructs are sequenced verified and diluted to a working concentration of 110 ng/μL.
HeLa S3 Lysate Preparation: HeLa S3 cell pellets are acquired from Ipracell/Ipratech (Belgium) and shipped as 4 mL frozen cell pellets on dry ice for storage at −80° C. until use. The procedure for lysate preparation is as follows. Prepare 1× Lysis Buffer, cold and stored on ice:
Each preparation takes 8 cell pellets (4 ml packed volume each, approximately 1.0×10^9 cells per pellet). Thaw cell pellets from −80° C. on ice for 90 mins. Lay pellets horizontally on top of the ice and rotate every 30 mins to ensure even thawing. Once thawed, add 4 mL of cold lysis buffer to each pellet, and using a serological pipet, gently pipet up and down to break up clumps. Incubate resuspended cells in ice for an additional 30 mins (plunged into ice). During 30 min incubation, rinse and RNase-zap (Ambion) glass dounces (use loose pestle “A”), gently dry and place on ice until needed. Prepare RNase-free Eppendorf tubes for spinning and for batch storage. Add batch labels to 1.5-1.7 mL RNase-free microcentrifuge tubes (labeling scheme below). Each batch will have an extra 1.5-1.7 mL RNase-free microcentrifuge tube for 40 μL of lysate, label the top of this tube (labeling scheme below). After 30 min incubation, transfer all 8 mL of cell pellet to dounce. Cell lysis is complete after douncing 100 times. Aliquot cell lysis into 1.5-1.7 mL temporary-microcentrifuge tubes. Place tubes in centrifuge with “fins” out, and spin at 1,200×g for 5 mins. After the first spin use a 1 mL pipet to resuspend each tube and repeat spin. This acts as an additional lysis step, is more vigorous and increases lysate yield. During second spin get liquid N2 and a fresh conical tube on ice. After spin is complete, transfer supernatant (lysate) from microcentrifuge tubes into the 50 mL conical tube and keep on ice. Repeat steps 10-14 for all other cell pellets until completed. Once all cell lysate has been transferred to the 50 mL conical tube pipet to mix so the solution is homogenous. Transfer 1 mL of lysate into batch-labeled microcentrifuge tubes and flash freeze in liquid nitrogen. Be sure to pipet up and down to mix throughout transfer step. Place all tubes in the […] for long-term storage.
In vitro transcription-translation assay setup: Each assay includes a master mix containing lysate and shared components, a 96-well plate containing compound titrations for testing, a 96-well DNA plate with reporter constructs to be tested, 96-well skirted PCR plates, and 96-well flat-bottom, black, fluorescent assay plates. […]

MCL-1 = experiment: In vitro transcription-translation (IVTT) assay, MCL-1 reporter; settings: HeLa S3 lysate, sfGFP/mCherry ratio, 2 hrs at 30° C.
Method in brief: as §1

MYC = experiment: In vitro transcription-translation (IVTT) assay, MYC reporter; settings: HeLa S3 lysate, 2 hrs at 30° C.
Method in brief: as §1

NFKB1 = experiment: In vitro transcription-translation (IVTT) assay, NFKB1 reporter; settings: HeLa S3 lysate, sfGFP/mCherry ratio
Method: In vitro transcription-translation assay setup: Each assay includes a master mix containing lysate and shared components, a 96-well plate containing compound titrations for testing, a 96-well DNA plate with reporter constructs to be tested, 96-well skirted PCR plates, and 96-well flat-bottom, black, fluorescent assay plates. Reaction materials setup: (A) Master mix—15 mL conical tube (3 mL of HeLa S3 Lysate described above; 0.6 mL of ThermoFisher Accessory Proteins (#88882); 1.2 ml of ThermoFisher Reaction Mix (#88882); 0.54 mL of nuclease-free Water); (B) 96-Well Master Mix+Compound Plate (Half-log dilutions (30 μM−0.1 μM) of 4 compounds of interest are prepared in 100% DMSO); 96-Well DNA Plate (Five DNA constructs are plated into single columns within the plate. Row 1 of the column contains nuclease free H2O, all other wells contain 110 ng/μL plasmid DNA). Reactions are started by mixing 155 μL of master mix and 3.5 μL of compound serial dilutions, then 9.1 μL of master mix+compound mixture is aliquoted across 5 96-well plates. Reactions begin with final addition of 2 μL of DNA for a 11.1 μL reaction volume in each well. The entire plate is sealed, and incubated for 2 hrs at 30° C. After 2 hrs, quench the assay using 45 μL of PBS, and transfer 50 μL to a flat-bottom black microplate Quantify the sfGFP and mCherry signals from each well on each plate, taking 3 reads of each plate, and perform data analysis below.
In vitro transcription-translation assay data analysis: Each plate is read three times in channels for both sfGFP and mCherry signals. The average signal across these 3 reads is then calculated for further analysis. Control wells containing no DNA reporter are subtracted from reporter wells in the same column to remove auto-fluorescence of the lysate. Then, the ratio of sfGFP/mCherry is calculated per well, and these ratios are averaged across the triplicate experiments on the same plate. Finally, the ratio of each titration concentration is normalized to the no drug control to create the normalized stalling metric. The error on this measurement is determined by propagating error through the averaging and normalization steps. Values are plotted and fit for IC50 determination for each test sequence and titration of compound.

[1] = IVTT assay, MYC reporter, normalized sfGFP/mCherry ratio, half-log dilutions 30 μM-0.1 μM

IC50 (CCND1; 2 hrs at 30° C.)	IC50 (BCL-2)	IC50 (MCL-1)	IC50 (MYC; sfGFP/mCherry ratio)	IC50 (NFKB1)	IC50 (CCND1; IVTT assay)	Compound	IC50 (MYC; [1])
> 30 µM	> 30 µM	> 30 µM				COc1ccc(C[C@H]2NC[C@H](O)[C@H]2OC(=O)NCc2n[nH]nc2COCc2ccccc2)cc1 [Cmpd V187805]	
< 10 µM	< 10 µM	< 10 µM				COc1ccc(C[C@H]2NC[C@H](O)[C@H]2OC(=O)NCCc2n[nH]cc2C#N)cc1 [Cmpd V188126]	
> 30 µM	> 30 µM		20 to 30 µM			COc1ccc(C[C@H]2NC[C@H](O)[C@H]2OC(=O)NCCNC(=O)C2(N)CC2)cc1 [V187919, (2R,3S,4S)-4-hydroxy-2-[(4-methoxyphenyl)methyl]pyrrolidin-3-yl N-{2-[(1-aminocyclopropyl)formamido]ethyl}carbamate]	
	> 30 µM	> 30 µM	> 30 µM			COc1ccc(C[C@H]2NC[C@H](O)[C@H]2OC(=O)NC[C@@H]2CCCNC2)cc1 [V187929, (2R,3S,4S)-4-hydroxy-2-[(4-methoxyphenyl)methyl]pyrrolidin-3-yl N-[(3R)-piperidin-3-ylmethyl]carbamate]	
	> 30 µM	> 30 µM	> 30 µM			COc1ccc(C[C@H]2NC[C@H](O)[C@H]2OC(=O)NCCc2ccc(-c3ccccc3)cc2)cc1 [V187979]	
	10 to 20 µM	< 10 µM	< 10 µM			COc1ccc(C[C@H]2NC[C@H](O)[C@H]2OC(=O)NCc2ccncc2Cl)cc1 [V188052, (2R,3S,4S)-4-hydroxy-2-[(4-methoxyphenyl)methyl]pyrrolidin-3-yl N-[(3-chloropyridin-4-yl)methyl]carbamate]	
				< 10 µM	< 10 µM	O=C(NCc1cccc(F)c1)O[C@@H]1[C@@H](O)CN[C@@H]1Cc1ccc(-c2cn3cc(C(F)(F)F)nc3s2)cc1 [V192874, (2R,3S,4S)-4-hydroxy-2-({4-[6-(trifluoromethyl)imidazo[2,1-b][1,3]thiazol-2-yl]phenyl}methyl)pyrrolidin-3-yl N-[(3-fluorophenyl)methyl]carbamate]	< 10 µM
				< 10 µM	< 10 µM	O=C(NCC[C@@H]1CCCN1)O[C@@H]1[C@@H](O)CN[C@@H]1Cc1ccc(C(F)F)cc1 [V192893, (2R,3S,4S)-2-(4-(difluoromethyl)benzyl)-4-hydroxypyrrolidin-3-yl (2-((S)-pyrrolidin-2-yl)ethyl)carbamate]	< 10 µM
				< 10 µM	< 10 µM	O=C(NCC[C@H]1CCNCC1(F)F)O[C@@H]1[C@@H](O)CN[C@@H]1Cc1ccc(-c2cnco2)cc1 [V192894, (2R,3S,4S)-4-hydroxy-2-{[4-(1,3-oxazol-5-yl)phenyl]methyl}pyrrolidin-3-yl N-{2-[(4R)-3,3-difluoropiperidin-4-yl]ethyl}carbamate]	< 10 µM
				< 10 µM	< 10 µM	O=C(NCc1cccc(F)c1)O[C@@H]1[C@@H](O)CN[C@@H]1Cc1ccc(C(F)(F)F)cc1 [V192896, (2R,3S,4S)-4-hydroxy-2-{[4-(trifluoromethyl)phenyl]methyl}pyrrolidin-3-yl N-[(3-fluorophenyl)methyl]carbamate]	< 10 µM
				< 10 µM	10 to 20 µM	O=C(NCC[C@H]1CCNC[C@H]1F)O[C@@H]1[C@@H](O)CN[C@@H]1Cc1ccc(-c2cnco2)cc1 [V192897, (2R,3S,4S)-4-hydroxy-2-{[4-(1,3-oxazol-5-yl)phenyl]methyl}pyrrolidin-3-yl N-{2-[(3S,4R)-3-fluoropiperidin-4-yl]ethyl}carbamate]	< 10 µM
				< 10 µM	10 to 20 µM	O=C(NCC[C@@H]1CCCN1)O[C@@H]1[C@@H](O)CN[C@@H]1Cc1ccc(-c2cnco2)c(F)c1 [V192903, (2R,3S,4S)-2-{[3-fluoro-4-(1,3-oxazol-5-yl)phenyl]methyl}-4-hydroxypyrrolidin-3-yl N-{2-[(2S)-pyrrolidin-2-yl]ethyl}carbamate]	< 10 µM
				< 10 µM	< 10 µM	O=C(NCC[C@@H]1C[C@H](C(F)(F)F)CN1)O[C@@H]1[C@@H](O)CN[C@@H]1Cc1ccc(-c2cnco2)cc1 [V192912, (2R,3S,4S)-4-hydroxy-2-{[4-(1,3-oxazol-5-yl)phenyl]methyl}pyrrolidin-3-yl N-{2-[(2S,4S)-4-(trifluoromethyl)pyrrolidin-2-yl]ethyl}carbamate]	< 10 µM
				< 10 µM	< 10 µM	O=C(NCC[C@@H]1CC(F)CN1)O[C@@H]1[C@@H](O)CN[C@@H]1Cc1ccc(-c2cnco2)cc1 (stereo partly drawn) [V192916, (2R,3S,4S)-4-hydroxy-2-{[4-(1,3-oxazol-5-yl)phenyl]methyl}pyrrolidin-3-yl N-{2-[(2R)-4-fluoropyrrolidin-2-yl]ethyl}carbamate]	< 10 µM
				< 10 µM	< 10 µM	O=C(NCC[C@@H]1C[C@H](F)CN1)O[C@@H]1[C@@H](O)CN[C@@H]1Cc1ccc(-c2cnco2)cc1 [V192917, (2R,3S,4S)-4-hydroxy-2-{[4-(1,3-oxazol-5-yl)phenyl]methyl}pyrrolidin-3-yl N-{2-[(2R,4S)-4-fluoropyrrolidin-2-yl]ethyl}carbamate]	< 10 µM
				< 10 µM	< 10 µM	(2R,3S,4S)-2-(2,1,3-benzoxadiazol-5-ylmethyl)-4-hydroxypyrrolidin-3-ylN-[(3-fluorophenyl)methyl]carbamate [V192383]	< 10 µM
				< 10 µM	< 10 µM	(2R,3S,4S)-2-{[2-fluoro-4-(1,3-oxazol-5-yl)phenyl]methyl}-4-hydroxypyrrolidin-3-ylN-[(3-fluorophenyl)methyl]carbamate [V192861]	< 10 µM
				< 10 µM	< 10 µM	(3S,4S,5R)-4-({[(3-fluorophenyl)methyl]carbamoyl}oxy)-5-{[4-(1,3-oxazol-5-yl)phenyl]methyl}pyrrolidin-3-yl acetate [V192392]	< 10 µM
